Laboratory results published in US20250093329A1, “SCREENING OF COMPOUNDS” (THE UNIVERSITY OF TULSA, priority 2022, published 2025).

Tests used:
Assay type in all cases: cell-based
[1] = test system: each cell line tested; assay: ATP levels by CellTiter-Glo, all cell lines of Table 1 taken together; details: 100 μM compound with 2-DG, Table 1 cell lines
Excerpt: A wide variety of ATP luminescing detection reagents are available commercially. So long as the reagent produces a luminescence in the presence of ATP, the reagent will be suitable for use in the present method. Suitable reagents include but are not limited to any ATP dependent luciferase such as but not limited to firefly luciferase, other modified luciferase based reagents, i.e. luciferase derivatives. According to the rapid method for determining the anti-cancer activity of a compound, a sample of living cells is distributed across a number of testing wells. Typically, 96-well plates are used; however, the number of wells is not critical to the current method. When using a 96-well plate the number of living cells will commonly be about 20,000. […] The sample wells contain a cell growth medium to promote cell health and growth and an additive to prevent bacterial contamination of the wells. One common example of the cell growth medium is DMEM with 10% FBS as described above. One example of the additive to prevent bacterial contamination is a solution of penicillin G and streptomycin referred to commonly as Pen-Strep. The Pen-Strep solution typically contains 5000 units of penicillin G and 5000 micrograms of streptomycin. Thus, the rapid determination of anti-cancer compounds can be carried out using the following method. • The desired number of cells are distributed in a 96-well plate containing 100 μL DMEM plus 10% FBS with optional Pen-Strep. • After 24 hours, cells are treated with the compound of interest or a 5% solution of dimethyl sulfoxide (DMSO) in water as a control. • The time period for exposure to the compound of interest and the DMSO control will vary depending on the luminescing detection reagent. However, when using a commercially available reagent such as resazurin (CellTiter Blue commercially available from Promega) or luciferase or a luciferase derivative (CellTiter Glo commercially available from Promega) the time period can be readily determined with reference to literature from the commercial source. Other luminescing detection agents can also be used with minimal experimentation to determine the desired compound exposure time. • Upon completion of the time period for exposure to the compound of interest or the DMSO, 10 μL of the luminescing detection reagent is added and the cells are lysed by a detergent added along with the luminescing detection reagent. • When the reagent is resazurin, as found in CellTiter-Blue the time period for exposure to the compound of interest and the DMSO will be about 24 hours. • When the reagent is luciferase or a luciferase derivative as found in CellTiter-Glo the time period for exposure to the compound of interest and the DMSO will be about 30 minutes to four hours. • The luminescing detection reagent is added over a period of time. • When using resazurin, the time period for the addition of the 10 μl volume takes place over a period of about one to four hours. • When using luciferase or a luciferase derivative, the time period is about 3 minutes to about 7 minutes, typically about 5 minutes. • During the time period of addition of the luminescing detection reagent the resulting luminescence is measured using conventional methods and devices. […] If the compound of interest deactivates the cell, then the cell produces less or no ATP. As a result, the cells in the well treated with the compound of interest will have a lower luminescence value as compared to the cells in wells treated with DMSO. • The value for the cells treated with the compound of interest is reported as a “percent of control” (POC) value. The determination of POC is calculated by dividing the averaged response from duplicate wells containing the cells as treated with the compound of interest by the average response of duplicate control wells which contain only cells and DMSO (in other words, a blank control experiment). […]

[2] = test system: H293; assay: Cytotoxicity testing, CellTiter-Blue assay, 24 hour (FIG. 3); details: 100 μM, 24 hour compound incubation
Experimental: (§1) The cytotoxicity tests were carried out in the following manner. Living cells are known to convert resazurin to the fluorescent compound resorufin. Test systems which rely upon this reaction are commercially available. One such test is known at the Cell Titer Blue Cell Viability test assay from Promega. Cell cultures for each of the identified cancer lines were obtained from ATCC and maintained in Dulbecco's Modified Eagle Medium (DMEM) supplemented with 10% fetal bovine serum (FBS) and pen/strep. As known to those skilled in the art, DMEM typically includes the components identified below.
(§2) The test method provides for incubating the cell cultures at temperatures which correspond to the range of body temperatures experienced by the patient from which the cancer cells were obtained. Typically, incubation temperatures will be between the temperatures of 36.1° C. and 37.2° C. In most cases incubation will occur at 37° C. Additionally, the cell cultures are kept under an atmosphere which mimics cell conditions of the tumor within the patient's body. In most cases, the tumor microenvironment (TME) is characterized by hypoxia (low oxygen) and may also be characterized by hypercapnia (increased CO2). Hypercapnia results from decreased blood flow which limits CO2 elimination. Restricted CO2 elimination leads to increased HCO3^− conversion to CO2 in order to neutralize lactate as altered tumor cell metabolism produces more CO2 than normal. Normal tissue averages about 5% oxygen with oxygen ranges from about 3% to 7.4%. […] In the case of CO2, normocapnic is around 5% CO2, while hypercapnic can rise to 10% CO2. Therefore, to mimic the environment of the tumor the method utilizes an incubator designed to provide the optimal gaseous environment corresponding to that of the tumor. Thus, the incubator will be capable of maintaining an atmosphere having an oxygen content in the range of […] and a CO2 in the range of 1% to 10%.
(§3) After allowing for proliferation of the cells, the cells were distributed across a plurality of test wells containing from 100 μL DMEM plus 10% FBS and allowed to attach to the surface of the test wells. Typically, the time for attachment will require about 12 hours to about 18 hours. […] Following treatment of the cells with the N-benzyl sulfonamide or control, the toxicity of the compound to the cells will be determined by addition of a luminescing agent. […] Subsequently, the fluorescence of resazurin is measured by excitation at 560 nm and recording the emission at 590 nm within an instrument configured to measure fluorescence intensity. Two commercially available systems are the BioTek Cytation 5 plate reader and the Promega Glomax Multi+detection system. […]

[3] = test system: NCI-H196; assay: as above; details: 100 μM, 24 hour compound incubation
Experimental: as §1, §2, §3

[4] = test system: HEK293 (kidney cancer) cells; assay: Traditional versus rapid screening (FIG. 15); details: DMEM, CellTiter-Glo 1 hr, with or without 2DG, versus CellTiter-Blue/CellTiter-Glo 24 hr
Excerpt: FIG. 15 provides a comparison of traditional cytotoxicity testing the improved testing method described herein using HEK293 cells (kidney cancer), DMEM media, and the library sulfonamide compounds 1-30 found in FIGS. 1A-1C.
When used to identify compounds for specific patients, the following steps will be carried out: • Individualized patient cells will be acquired from a tumor biopsy and cultured/grown in patient blood serum and/or plasma. (In most instances the cells will be obtained using a needle biopsy; i.e. fine needle aspiration biopsy. Optionally, the cells may be obtained from resected tumor (i.e. excisional biopsy, which is an attempt at complete tumor removal), and/or a core biopsy; (i.e. removal of part of the tumor). Alternatively, cells may be obtained from blood draw samples, which would contain leukemia, lymphoma and myeloma cells.) • The cells (as few as 100 cells per experiment) will be screened directly in patient blood serum and/or plasma in the absence or presence of glycolysis inhibitor, 2-deoxyglucose (2DG) using a rapid (1-2 hr) screening assay (CellTiter-Glo, or “CTG”). • NOTE: while the discussion herein focuses on CTG, other assays suitable for measuring changes in ATP levels will perform equally as well. […] DMEM contains glucose, but L15 has substituted glucose with galactose. […]

Compound	effectiveness across the cell lines, with 2-DG [1]	further results
O=S(=O)(NCc1c[nH]c2ccccc12)c1ccccc1 [Compound 3, N-[(1H-indol-3-yl)methyl]benzenesulfonamide]	little effect	–
Cc1ccc(S(=O)(=O)NCc2c[nH]c3ccccc23)cc1 [Compound 1, N-[(1H-indol-3-yl)methyl]-4-methylbenzenesulfonamide]	little effect	–
CC(=O)n1cc(CNS(=O)(=O)c2ccc(Cl)cc2)c2ccccc21 [Compound 4, N-[(1-acetyl-1H-indole-3-yl)methyl]-4-chlorobenzenesulfonamide]	little effect	–
Cc1ccc(S(=O)(=O)NCc2ccc3ncccc3c2)cc1 [Compound 22, 4-methyl-N-(quinolin-6-ylmethyl)benzenesulfonamide]	little effect	–
Cc1ccc(S(=O)(=O)NCc2c[nH]c3cccc(Br)c23)cc1 [Compound 5, N-[(4-bromo-1H-indol-3-yl)methyl]-4-methylbenzenesulfonamide]	–	effectiveness, percent reduction in cell viability (FIG. 3) [2]: effective; effectiveness, percent reduction in cell viability (FIG. 3) [3]: effectiveness; sensitivity of rapid assays versus traditional methods (FIG. 15) [4]: enhanced sensitivity
Cc1cccc2c(CNS(=O)(=O)c3ccccc3)c[nH]c12 [Compound 6, N-[(7-methyl-1H-indol-3-yl)methyl]benzenesulfonamide]	–	effectiveness, percent reduction in cell viability (FIG. 3) [2]: effective
COc1ccc(S(=O)(=O)NCc2c[nH]c3ccccc23)cc1 [Compound 23, N-(1H-indol-3-ylmethyl)-4-methoxybenzenesulfonamide]	little effect	–
